Legend:
Format in all cases: in vivo
[1] = tested on: Digitaria sanguinalis; assay: Post-emergence test experiment, Digitaria sanguinalis; conditions: 1000 g a.i./ha, 3 weeks in greenhouse, fresh weight inhibition
Method in brief: (§1)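 Weed and crop seeds were sown in soil-filled pots, covered with 0.5-2 cm soil and grown in a greenhouse. Plants were sprayed at the 2-3 leaf stage, 2 weeks after sowing. Compounds were in acetone with tween-80 plus methyl oleate emulsible concentrate synergist (1.5 liters per hectare). Fresh weight inhibition was scored after 3 weeks.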

[2] = tested on: Echinochloa crusgalli; assay: Post-emergence test experiment, Echinochloa crusgalli; conditions: 1000 g a.i./ha, 3 weeks in greenhouse, fresh weight inhibition
Method in brief: as §1

[3] = tested on: Monocotyledonous and dicotyledonous weed seeds and main crop seeds; assay: Post-emergence test experiment, other weeds and crops (Table 4, 1000 g a.i./ha); conditions: 3 weeks in greenhouse, fresh weight inhibition
Method in brief: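 Weed and crop seeds (wheat, corn, rice, soybean, cotton, oilseed, millet, sorghum) sown in soil pots in a greenhouse and sprayed at 2-3 leaf stage, 2 weeks after sowing. Compound in acetone/tween-80 with methyl oleate concentrate (1.5 L/ha) as synergist. Effect recorded as fresh-weight growth inhibition rate.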

SMILES | Activity level (growth inhibition rate), Digitaria sanguinalis [1] | Activity level (growth inhibition rate), Echinochloa crusgalli [2] | Activity level (growth inhibition rate), Abutilon theophrasti Medic. [3] | Activity level (growth inhibition rate), Galium aparine [3] | Activity level (growth inhibition rate), Monochoria Vaginalis [3]
CCCC(C)CSC(=O)[C@@H](C)Oc1nc(F)c(Cl)c(N)c1Cl (some centres unmarked) [Compound 2-104] | 5 (Level 5: the growth inhibition rate is greater than 85%) | 5 (Level 5: the growth inhibition rate is greater than 85%) | 5 (Level 5: the growth inhibition rate is greater than 85%) | 5 (Level 5: the growth inhibition rate is greater than 85%) | 5 (Level 5: the growth inhibition rate is greater than 85%)
CCC(C)CCOC(=O)[C@@H](C)Oc1nc(F)c(Cl)c(N)c1Cl (some centres unmarked) [Compound 2-105] | 5 (Level 5: the growth inhibition rate is greater than 85%) | 5 (Level 5: the growth inhibition rate is greater than 85%) | 5 (Level 5: the growth inhibition rate is greater than 85%) | 5 (Level 5: the growth inhibition rate is greater than 85%) | 5 (Level 5: the growth inhibition rate is greater than 85%)
CCC(C)CCSC(=O)[C@@H](C)Oc1nc(F)c(Cl)c(N)c1Cl (some centres unmarked) [Compound 2-106] | 5 (Level 5: the growth inhibition rate is greater than 85%) | 5 (Level 5: the growth inhibition rate is greater than 85%) | 5 (Level 5: the growth inhibition rate is greater than 85%) | 5 (Level 5: the growth inhibition rate is greater than 85%) | 5 (Level 5: the growth inhibition rate is greater than 85%)
CC(C)CCCOC(=O)[C@@H](C)Oc1nc(F)c(Cl)c(N)c1Cl [Compound 2-107] | 5 (Level 5: the growth inhibition rate is greater than 85%) | 5 (Level 5: the growth inhibition rate is greater than 85%) | 5 (Level 5: the growth inhibition rate is greater than 85%) | 5 (Level 5: the growth inhibition rate is greater than 85%) | 5 (Level 5: the growth inhibition rate is greater than 85%)
CC(C)CCCSC(=O)[C@@H](C)Oc1nc(F)c(Cl)c(N)c1Cl [Compound 2-108] | 5 (Level 5: the growth inhibition rate is greater than 85%) | 5 (Level 5: the growth inhibition rate is greater than 85%) | 5 (Level 5: the growth inhibition rate is greater than 85%) | 5 (Level 5: the growth inhibition rate is greater than 85%) | 5 (Level 5: the growth inhibition rate is greater than 85%)
CCCCC(C)SC(=O)[C@@H](C)Oc1nc(F)c(Cl)c(N)c1Cl (some centres unmarked) [Compound 2-114] | 5 (Level 5: the growth inhibition rate is greater than 85%) | 5 (Level 5: the growth inhibition rate is greater than 85%) | 5 (Level 5: the growth inhibition rate is greater than 85%) | 5 (Level 5: the growth inhibition rate is greater than 85%) | 5 (Level 5: the growth inhibition rate is greater than 85%)
CCCCCCCSC(=O)[C@@H](C)Oc1nc(F)c(Cl)c(N)c1Cl [Compound 2-122] | 5 (Level 5: the growth inhibition rate is greater than 85%) | 5 (Level 5: the growth inhibition rate is greater than 85%) | 5 (Level 5: the growth inhibition rate is greater than 85%) | 5 (Level 5: the growth inhibition rate is greater than 85%) | 5 (Level 5: the growth inhibition rate is greater than 85%)
CCCCCCCCOC(=O)[C@@H](C)Oc1nc(F)c(Cl)c(N)c1Cl [Compound 2-155] | 5 (Level 5: the growth inhibition rate is greater than 85%) | 5 (Level 5: the growth inhibition rate is greater than 85%) | 5 (Level 5: the growth inhibition rate is greater than 85%) | 5 (Level 5: the growth inhibition rate is greater than 85%) | 5 (Level 5: the growth inhibition rate is greater than 85%)
CCCCCCCCSC(=O)[C@@H](C)Oc1nc(F)c(Cl)c(N)c1Cl [Compound 2-156] | 5 (Level 5: the growth inhibition rate is greater than 85%) | 5 (Level 5: the growth inhibition rate is greater than 85%) | 5 (Level 5: the growth inhibition rate is greater than 85%) | 5 (Level 5: the growth inhibition rate is greater than 85%) | 5 (Level 5: the growth inhibition rate is greater than 85%)
CCCCC(CC)COC(=O)[C@@H](C)Oc1nc(F)c(Cl)c(N)c1Cl (some centres unmarked) [Compound 2-157] | 5 (Level 5: the growth inhibition rate is greater than 85%) | 5 (Level 5: the growth inhibition rate is greater than 85%) | 5 (Level 5: the growth inhibition rate is greater than 85%) | 5 (Level 5: the growth inhibition rate is greater than 85%) | 5 (Level 5: the growth inhibition rate is greater than 85%)
CCCCC(CC)CSC(=O)[C@@H](C)Oc1nc(F)c(Cl)c(N)c1Cl (some centres unmarked) [Compound 2-158] | 5 (Level 5: the growth inhibition rate is greater than 85%) | 5 (Level 5: the growth inhibition rate is greater than 85%) | 5 (Level 5: the growth inhibition rate is greater than 85%) | 5 (Level 5: the growth inhibition rate is greater than 85%) | 5 (Level 5: the growth inhibition rate is greater than 85%)
CC(C)CCCCCOC(=O)[C@@H](C)Oc1nc(F)c(Cl)c(N)c1Cl [Compound 2-159] | 5 (Level 5: the growth inhibition rate is greater than 85%) | 5 (Level 5: the growth inhibition rate is greater than 85%) | 5 (Level 5: the growth inhibition rate is greater than 85%) | 5 (Level 5: the growth inhibition rate is greater than 85%) | 5 (Level 5: the growth inhibition rate is greater than 85%)
CC(C)CCCCCSC(=O)[C@@H](C)Oc1nc(F)c(Cl)c(N)c1Cl [Compound 2-160] | 5 (Level 5: the growth inhibition rate is greater than 85%) | 5 (Level 5: the growth inhibition rate is greater than 85%) | 5 (Level 5: the growth inhibition rate is greater than 85%) | 5 (Level 5: the growth inhibition rate is greater than 85%) | 5 (Level 5: the growth inhibition rate is greater than 85%)
CCCCCCC(C)OC(=O)[C@@H](C)Oc1nc(F)c(Cl)c(N)c1Cl (some centres unmarked) [Compound 2-163] | 5 (Level 5: the growth inhibition rate is greater than 85%) | 5 (Level 5: the growth inhibition rate is greater than 85%) | 5 (Level 5: the growth inhibition rate is greater than 85%) | 5 (Level 5: the growth inhibition rate is greater than 85%) | 5 (Level 5: the growth inhibition rate is greater than 85%)
CCCCCCC(C)SC(=O)[C@@H](C)Oc1nc(F)c(Cl)c(N)c1Cl (some centres unmarked) [Compound 2-164] | 5 (Level 5: the growth inhibition rate is greater than 85%) | 5 (Level 5: the growth inhibition rate is greater than 85%) | 5 (Level 5: the growth inhibition rate is greater than 85%) | 5 (Level 5: the growth inhibition rate is greater than 85%) | 5 (Level 5: the growth inhibition rate is greater than 85%)
CCCCCCCCCOC(=O)[C@@H](C)Oc1nc(F)c(Cl)c(N)c1Cl [Compound 2-175] | 5 (Level 5: the growth inhibition rate is greater than 85%) | 5 (Level 5: the growth inhibition rate is greater than 85%) | 5 (Level 5: the growth inhibition rate is greater than 85%) | 5 (Level 5: the growth inhibition rate is greater than 85%) | 5 (Level 5: the growth inhibition rate is greater than 85%)
